Results as given in article PMC8881512 (Nature Communications, 2022).
Several values for one entry are separate records, joined by “and”; a condition that tells them apart may be missing. Identical values can stand only once.

Assays:
[1] = system: Phospho-YAP (Ser127) in HEK293A cells; assay: Cellular Phospho-YAP HTRF assay, HEK293A; format: cell-based; details: for YAP phosphorylation: 293A, Fig.5d
Procedure: Compound inhibition of […] YAP phosphorylation were performed based on commercial Phospho-YAP (Ser127) kit (Cisbio). In brief, HEK293A cells at 80%-100% confluence was rinsed with PBS, digested in 0.25% Trypsin-EDTA and centrifuged at 1000 × g for 3 min. The cell pellet was resuspended with appropriate volume of serum-free medium, counted using automated cell counter (Invitrogen), adjusted to a working density of 2.9 × 10^6/ml and dispensed into 384-well small volume white plate (Greiner) at 12 μl/well (3.5 × 10^4 cells) using Thermo Multidrop Combi microplate dispenser. At the time of detection, 36 nl DMSO contain 3-fold serial diluted compounds ranging from 10,000 to 4.6 nM were added into designed wells by Eco system and incubated at 37 °C for 120 min. Cell were lysed by adding 4 μl lysis buffer (4x), and incubated for 45 min at room temperature under shaking. HTRF reaction was performed by adding 4 μl of premixed phospho-YAP Cryptate antibody/Phospho-YAP d2 antibody solution prepared in the detection buffer and incubate at room temperature overnight. […] The compound inhibition was calculated by the formula, inhibition % = ([…]) × 100/ (HPE−ZPE). HPE represent 100% effect and ZPE is 0% effect. The data processing procedures were similar as in vitro LATS kinase inhibition assay.

[2] = biological target: T1, PKA (Homo sapiens, UniProt P17612); assay: Kinome profiling; format: biochemical; details: VT02956 (5 nM), read-out: % enzymatic activity relative to DMSO controls
T1 construct: LATS1/LATS2 enzymes from Signalchem

[3] = biological target: T2, BLK (Homo sapiens, UniProt P51451); assay: Kinome profiling; format: biochemical; details: VT02956 (5 nM), read-out: % enzymatic activity relative to DMSO controls
T2 construct: LATS1/LATS2 enzymes from Signalchem

[4] = biological target: T3, PKN1/PRK1 (Homo sapiens, UniProt Q16512); assay: Kinome profiling; format: biochemical; details: VT02956 (5 nM), read-out: % enzymatic activity relative to DMSO controls
T3 construct: LATS1/LATS2 enzymes from Signalchem

[5] = biological target: T4, HGK/MAP4K4 (Homo sapiens, UniProt O95819); assay: Kinome profiling; format: biochemical; details: VT02956 (5 nM), read-out: % enzymatic activity relative to DMSO controls
T4 construct: LATS1/LATS2 enzymes from Signalchem

[6] = biological target: T5, MUSK (Homo sapiens, UniProt O15146); assay: Kinome profiling; format: biochemical; details: VT02956 (5 nM), read-out: % enzymatic activity relative to DMSO controls
T5 construct: LATS1/LATS2 enzymes from Signalchem

[7] = biological target: T6, KSR2 (Homo sapiens, UniProt Q6VAB6); assay: Kinome profiling; format: biochemical; details: VT02956 (5 nM), read-out: % enzymatic activity relative to DMSO controls
T6 construct: LATS1/LATS2 enzymes from Signalchem

[8] = biological target: T7, COT1/MAP3K8 (Homo sapiens, UniProt P41279); assay: Kinome profiling; format: biochemical; details: VT02956 (5 nM), read-out: % enzymatic activity relative to DMSO controls
T7 construct: LATS1/LATS2 enzymes from Signalchem

[9] = biological target: T8, PKAcg (Homo sapiens, UniProt P22612); assay: Kinome profiling; format: biochemical; details: VT02956 (5 nM), read-out: % enzymatic activity relative to DMSO controls
T8 construct: LATS1/LATS2 enzymes from Signalchem

[10] = biological target: T9, MSK1/RPS6KA5 (Homo sapiens, UniProt O75582); assay: Kinome profiling; format: biochemical; details: VT02956 (5 nM), read-out: % enzymatic activity relative to DMSO controls
T9 construct: LATS1/LATS2 enzymes from Signalchem

[11] = biological target: T10, PRKX (Homo sapiens, UniProt P51817); assay: Kinome profiling; format: biochemical; details: VT02956 (5 nM), read-out: % enzymatic activity relative to DMSO controls
T10 construct: LATS1/LATS2 enzymes from Signalchem

[12] = system: Phospho-YAP (Ser127) in 4T1 cells; assay: Cellular Phospho-YAP HTRF assay, 4T1; format: cell-based; details: for YAP phosphorylation: 4T1, Fig.5d
[13] = biological target: T11, LATS1 (Homo sapiens, UniProt O95835); assay: Kinome profiling; format: biochemical; details: VT02956 (5 nM)
T11 construct: purchased Signalchem
T11 sequence (O95835 1-1130): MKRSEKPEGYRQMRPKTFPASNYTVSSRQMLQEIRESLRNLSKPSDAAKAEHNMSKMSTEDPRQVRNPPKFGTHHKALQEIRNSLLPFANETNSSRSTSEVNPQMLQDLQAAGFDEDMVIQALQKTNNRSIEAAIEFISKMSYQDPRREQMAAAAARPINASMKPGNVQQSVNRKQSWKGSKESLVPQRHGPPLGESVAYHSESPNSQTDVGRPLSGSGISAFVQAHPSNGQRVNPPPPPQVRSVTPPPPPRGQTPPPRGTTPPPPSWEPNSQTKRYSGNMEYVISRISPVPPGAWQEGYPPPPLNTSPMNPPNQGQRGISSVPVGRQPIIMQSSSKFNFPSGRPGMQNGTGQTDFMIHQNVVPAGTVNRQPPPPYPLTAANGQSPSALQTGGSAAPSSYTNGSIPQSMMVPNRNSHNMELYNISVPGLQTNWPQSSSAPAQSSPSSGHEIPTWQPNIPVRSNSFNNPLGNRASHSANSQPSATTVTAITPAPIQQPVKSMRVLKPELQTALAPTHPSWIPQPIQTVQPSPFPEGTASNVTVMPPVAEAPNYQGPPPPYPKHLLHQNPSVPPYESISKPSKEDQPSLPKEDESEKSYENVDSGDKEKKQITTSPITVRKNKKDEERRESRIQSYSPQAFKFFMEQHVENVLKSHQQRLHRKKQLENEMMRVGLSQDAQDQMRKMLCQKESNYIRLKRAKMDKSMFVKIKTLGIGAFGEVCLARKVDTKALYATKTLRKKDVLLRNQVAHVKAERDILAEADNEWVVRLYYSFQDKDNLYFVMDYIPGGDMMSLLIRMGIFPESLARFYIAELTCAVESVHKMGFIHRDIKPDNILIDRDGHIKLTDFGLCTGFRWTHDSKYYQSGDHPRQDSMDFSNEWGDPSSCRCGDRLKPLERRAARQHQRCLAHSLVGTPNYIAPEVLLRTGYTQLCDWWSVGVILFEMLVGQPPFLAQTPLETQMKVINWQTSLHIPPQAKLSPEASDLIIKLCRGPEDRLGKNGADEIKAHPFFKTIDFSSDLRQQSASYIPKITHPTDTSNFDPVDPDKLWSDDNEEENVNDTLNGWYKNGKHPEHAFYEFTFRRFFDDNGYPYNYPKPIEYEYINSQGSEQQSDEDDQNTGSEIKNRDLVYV

[14] = system: MCF-7 cells; assay: Cell proliferation by cell counting, MCF-7; format: cell-based, human; details: for Cell proliferation normalised to DMSO treated WT cells: 4 days, Fig.6c
Procedure: Cell proliferation rates were determined by automated cell counter. In brief, cells were plated at density of 0.1 million cells per well in six-well plate. Cell numbers were counted by the indicated time point as stated in the figure legends.

T3 sequence (Q16512 whole entry): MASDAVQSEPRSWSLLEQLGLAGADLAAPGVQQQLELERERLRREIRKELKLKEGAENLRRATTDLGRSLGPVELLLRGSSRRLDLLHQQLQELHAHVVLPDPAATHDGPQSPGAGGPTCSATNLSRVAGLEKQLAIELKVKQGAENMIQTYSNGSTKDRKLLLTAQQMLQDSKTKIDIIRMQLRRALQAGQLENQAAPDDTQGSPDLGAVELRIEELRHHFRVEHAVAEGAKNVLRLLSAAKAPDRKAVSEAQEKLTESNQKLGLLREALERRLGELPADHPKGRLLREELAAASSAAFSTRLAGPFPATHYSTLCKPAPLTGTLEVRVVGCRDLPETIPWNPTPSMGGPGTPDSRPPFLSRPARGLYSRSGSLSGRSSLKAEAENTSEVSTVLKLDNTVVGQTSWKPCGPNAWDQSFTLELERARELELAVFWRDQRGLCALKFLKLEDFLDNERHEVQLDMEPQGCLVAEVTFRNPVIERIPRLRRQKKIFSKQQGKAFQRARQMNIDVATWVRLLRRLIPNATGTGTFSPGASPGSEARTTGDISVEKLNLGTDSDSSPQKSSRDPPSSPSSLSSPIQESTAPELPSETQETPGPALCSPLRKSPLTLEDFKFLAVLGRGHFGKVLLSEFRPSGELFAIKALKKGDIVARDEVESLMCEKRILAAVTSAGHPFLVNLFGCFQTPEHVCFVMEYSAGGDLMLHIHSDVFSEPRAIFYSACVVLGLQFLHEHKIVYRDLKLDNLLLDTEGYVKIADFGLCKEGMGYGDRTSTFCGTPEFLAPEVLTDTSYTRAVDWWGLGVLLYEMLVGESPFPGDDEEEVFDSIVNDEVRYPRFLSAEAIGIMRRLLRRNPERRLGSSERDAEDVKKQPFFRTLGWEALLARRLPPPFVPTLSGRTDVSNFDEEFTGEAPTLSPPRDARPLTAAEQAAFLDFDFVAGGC
T6 sequence (Q6VAB6 whole entry): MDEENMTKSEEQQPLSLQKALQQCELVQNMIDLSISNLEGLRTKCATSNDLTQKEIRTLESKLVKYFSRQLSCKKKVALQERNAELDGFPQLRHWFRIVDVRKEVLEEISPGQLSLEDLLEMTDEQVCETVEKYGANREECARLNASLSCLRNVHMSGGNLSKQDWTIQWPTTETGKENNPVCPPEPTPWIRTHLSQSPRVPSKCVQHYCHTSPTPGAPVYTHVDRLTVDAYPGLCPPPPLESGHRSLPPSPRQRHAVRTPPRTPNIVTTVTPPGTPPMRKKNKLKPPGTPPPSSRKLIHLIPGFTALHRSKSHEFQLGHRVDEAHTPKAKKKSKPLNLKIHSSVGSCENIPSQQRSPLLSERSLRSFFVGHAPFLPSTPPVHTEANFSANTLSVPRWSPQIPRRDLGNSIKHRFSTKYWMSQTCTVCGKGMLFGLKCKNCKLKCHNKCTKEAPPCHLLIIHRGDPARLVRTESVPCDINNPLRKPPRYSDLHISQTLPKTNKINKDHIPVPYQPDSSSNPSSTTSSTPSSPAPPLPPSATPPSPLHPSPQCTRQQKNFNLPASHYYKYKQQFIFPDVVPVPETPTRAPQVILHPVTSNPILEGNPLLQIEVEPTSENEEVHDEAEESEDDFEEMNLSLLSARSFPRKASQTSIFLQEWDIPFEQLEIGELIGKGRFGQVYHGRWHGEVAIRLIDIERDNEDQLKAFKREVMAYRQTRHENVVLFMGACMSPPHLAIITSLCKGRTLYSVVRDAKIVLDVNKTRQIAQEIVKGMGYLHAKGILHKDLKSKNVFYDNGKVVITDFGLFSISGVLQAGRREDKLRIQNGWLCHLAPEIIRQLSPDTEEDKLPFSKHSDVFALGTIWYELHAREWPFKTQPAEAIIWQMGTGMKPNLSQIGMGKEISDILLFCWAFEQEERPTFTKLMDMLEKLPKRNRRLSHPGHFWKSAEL
T10 sequence (P51817 whole entry): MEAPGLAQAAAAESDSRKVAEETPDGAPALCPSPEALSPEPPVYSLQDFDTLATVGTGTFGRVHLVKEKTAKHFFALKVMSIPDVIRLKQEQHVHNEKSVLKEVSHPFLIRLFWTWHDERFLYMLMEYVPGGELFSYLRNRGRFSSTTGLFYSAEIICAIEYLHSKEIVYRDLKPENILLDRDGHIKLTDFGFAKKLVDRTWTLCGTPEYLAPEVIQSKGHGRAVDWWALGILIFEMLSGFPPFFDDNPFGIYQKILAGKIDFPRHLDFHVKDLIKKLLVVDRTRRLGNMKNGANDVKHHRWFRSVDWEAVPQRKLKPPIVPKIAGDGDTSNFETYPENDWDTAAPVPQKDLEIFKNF
T4 sequence (O95819 whole entry): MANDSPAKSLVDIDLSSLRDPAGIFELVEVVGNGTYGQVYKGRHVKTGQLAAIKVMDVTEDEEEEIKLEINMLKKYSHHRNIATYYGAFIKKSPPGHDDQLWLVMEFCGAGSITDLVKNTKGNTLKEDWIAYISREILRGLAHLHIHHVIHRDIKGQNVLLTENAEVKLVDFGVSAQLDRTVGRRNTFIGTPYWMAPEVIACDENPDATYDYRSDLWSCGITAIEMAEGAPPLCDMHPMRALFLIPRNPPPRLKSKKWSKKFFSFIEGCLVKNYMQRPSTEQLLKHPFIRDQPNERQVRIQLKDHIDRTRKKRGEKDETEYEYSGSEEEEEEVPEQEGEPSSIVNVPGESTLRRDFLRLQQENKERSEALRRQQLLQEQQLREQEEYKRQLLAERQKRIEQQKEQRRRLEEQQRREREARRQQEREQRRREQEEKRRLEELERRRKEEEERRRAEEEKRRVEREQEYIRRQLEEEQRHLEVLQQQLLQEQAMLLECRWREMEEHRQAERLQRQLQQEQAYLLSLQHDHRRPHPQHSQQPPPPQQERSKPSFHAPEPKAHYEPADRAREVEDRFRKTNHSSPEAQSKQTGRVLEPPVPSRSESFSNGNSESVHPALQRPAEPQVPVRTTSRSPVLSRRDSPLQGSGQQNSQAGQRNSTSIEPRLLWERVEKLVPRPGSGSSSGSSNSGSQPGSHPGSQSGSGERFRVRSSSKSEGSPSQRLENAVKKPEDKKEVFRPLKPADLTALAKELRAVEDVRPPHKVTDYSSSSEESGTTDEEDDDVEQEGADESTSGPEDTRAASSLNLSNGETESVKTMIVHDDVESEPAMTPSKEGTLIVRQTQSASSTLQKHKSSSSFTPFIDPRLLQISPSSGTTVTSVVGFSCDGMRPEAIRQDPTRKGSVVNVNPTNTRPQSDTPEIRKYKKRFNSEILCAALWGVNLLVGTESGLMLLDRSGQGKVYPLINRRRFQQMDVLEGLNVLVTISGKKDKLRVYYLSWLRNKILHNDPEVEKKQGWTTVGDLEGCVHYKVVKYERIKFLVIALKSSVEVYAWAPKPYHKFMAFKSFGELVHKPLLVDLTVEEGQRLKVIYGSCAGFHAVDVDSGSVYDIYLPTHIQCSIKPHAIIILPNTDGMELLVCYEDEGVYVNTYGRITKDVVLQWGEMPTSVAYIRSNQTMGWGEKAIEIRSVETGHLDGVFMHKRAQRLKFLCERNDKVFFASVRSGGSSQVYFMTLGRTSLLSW
T5 sequence (O15146 24-869): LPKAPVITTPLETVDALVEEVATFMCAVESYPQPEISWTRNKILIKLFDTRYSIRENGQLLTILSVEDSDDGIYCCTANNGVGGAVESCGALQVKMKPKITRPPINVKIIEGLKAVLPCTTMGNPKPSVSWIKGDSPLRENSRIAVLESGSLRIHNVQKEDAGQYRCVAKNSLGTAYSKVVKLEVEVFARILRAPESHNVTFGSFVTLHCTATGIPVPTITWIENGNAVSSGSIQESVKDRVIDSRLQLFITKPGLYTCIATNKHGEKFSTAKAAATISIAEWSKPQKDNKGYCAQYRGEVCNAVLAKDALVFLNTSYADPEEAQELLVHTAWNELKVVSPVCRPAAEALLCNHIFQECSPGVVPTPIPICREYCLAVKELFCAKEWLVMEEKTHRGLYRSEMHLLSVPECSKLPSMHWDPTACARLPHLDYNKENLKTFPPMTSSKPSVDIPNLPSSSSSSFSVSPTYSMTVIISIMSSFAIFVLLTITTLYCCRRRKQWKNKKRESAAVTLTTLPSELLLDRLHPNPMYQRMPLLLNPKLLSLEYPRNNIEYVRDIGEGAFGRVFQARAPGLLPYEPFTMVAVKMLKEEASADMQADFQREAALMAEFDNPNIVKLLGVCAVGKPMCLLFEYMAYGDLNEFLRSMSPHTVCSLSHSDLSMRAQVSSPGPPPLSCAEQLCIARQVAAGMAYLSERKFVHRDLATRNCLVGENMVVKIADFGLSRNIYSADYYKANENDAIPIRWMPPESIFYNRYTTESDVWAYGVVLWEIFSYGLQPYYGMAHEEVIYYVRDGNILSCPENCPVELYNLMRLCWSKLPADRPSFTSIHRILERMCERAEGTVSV
T7 sequence (P41279 whole entry): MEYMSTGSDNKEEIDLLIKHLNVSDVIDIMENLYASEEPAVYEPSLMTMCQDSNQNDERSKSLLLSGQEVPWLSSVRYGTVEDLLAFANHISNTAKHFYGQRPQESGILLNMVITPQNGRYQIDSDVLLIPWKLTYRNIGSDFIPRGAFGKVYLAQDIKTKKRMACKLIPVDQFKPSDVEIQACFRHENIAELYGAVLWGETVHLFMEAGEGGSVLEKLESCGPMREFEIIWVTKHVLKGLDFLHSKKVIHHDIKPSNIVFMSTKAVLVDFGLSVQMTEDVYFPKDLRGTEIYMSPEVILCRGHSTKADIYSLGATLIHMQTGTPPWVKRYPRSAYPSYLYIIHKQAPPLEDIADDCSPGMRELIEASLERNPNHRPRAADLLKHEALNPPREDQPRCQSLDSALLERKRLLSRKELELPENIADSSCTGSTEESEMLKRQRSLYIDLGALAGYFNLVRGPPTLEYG

remaining activity at 0.005 µM [2]: 68%
remaining activity at 0.005 µM [3]: 78%
remaining activity at 0.005 µM [4]: 69%
remaining activity at 0.005 µM [5]: 85%
remaining activity at 0.005 µM [6]: 85%
remaining activity at 0.005 µM [7]: 83%
remaining activity at 0.005 µM [8]: 86%
remaining activity at 0.005 µM [9]: 28%
remaining activity at 0.005 µM [10]: 49%
remaining activity at 0.005 µM [11]: 3%
IC50 ([12]; Mus musculus, 4T1 cells, read-out: YAP phosphorylation IC50): 430 nM
% enzymatic activity relative to DMSO controls [13]: 22%
Structure (SMILES): NCC1CCN(c2nc(-c3ccncc3)nc3c(C#CCO)cccc23)CC1 [VT02956]
YAP phosphorylation ([1]; Conc. 0.00457247 (µM)): 88.3714 and 102.283
YAP phosphorylation ([1]; Conc. 0.0137174 (µM)): 105.168 and 111.221
YAP phosphorylation ([1]; Conc. 0.0411523 (µM)): 96.441 and 81.638
YAP phosphorylation ([1]; Conc. 0.123457 (µM)): 73.179 and 42.0107
YAP phosphorylation ([1]; Conc. 0.37037 (µM)): 20.9423 and 23.4127
YAP phosphorylation ([1]; Conc. 1.11111 (µM)): 9.018 and 5.767
IC50 ([1]; HEK293-A, 2 h, HEK293A cells, 120 min, read-out: YAP phosphorylation IC50): 160 nM
YAP phosphorylation ([12]; Conc. 0.00457247 (µM)): 95.8709 and 110.479
YAP phosphorylation ([12]; Conc. 0.0137174 (µM)): 110.398 and 92.919
YAP phosphorylation ([12]; Conc. 0.0411523 (µM)): 99.5656 and 109.183
YAP phosphorylation ([12]; Conc. 0.123457 (µM)): 90.8642 and 77.798
YAP phosphorylation ([12]; Conc. 0.37037 (µM)): 55.9969 and 62.3937
MCF-7 proliferation ([14]; 0.5 µM or 2 µM, 4-day time course, Supplementary Fig. 8a, b): inhibited the proliferation of MCF-7 and T47D cells
Cell proliferation normalised to DMSO treated WT cells ([14]; MCF-7 LATS1/2 dKO, VT02956 0.5 uM): 31.2704 and 24.43 and 25.4072
Cell proliferation normalised to DMSO treated WT cells ([14]; MCF-7 LATS1/2 dKO, VT02956 2 uM): 23.4528 and 26.3844 and 21.4984
Cell proliferation normalised to DMSO treated WT cells ([14]; MCF-7 WT, VT02956 0.5 uM): 76.2215 and 83.0619 and 85.9935
Cell proliferation normalised to DMSO treated WT cells ([14]; MCF-7 WT, VT02956 2 uM): 41.0423 and 42.0195
Cell proliferation normalised to DMSO treated WT cells ([14]; MCF-7 YAP/TAZ dKO, VT02956 0.5 uM): 94.7883 and 88.9251 and 92.8339
Cell proliferation normalised to DMSO treated WT cells ([14]; MCF-7 YAP/TAZ dKO, VT02956 2 uM): 84.0391 and 80.1303 and 85.0163
